Reference: publication PMC11879792 (Frontiers in Pharmacology, 2025)

Columns and labels:
[1] = set-up: method as in Diasio and Harris, 1989; conditions: parenteral administration of 5-FU; approximately; ref Diasio and Harris, 1989; cited from earlier work
[2] = Single-dose, two-cycle crossover PK/bioequivalence trial of S-1 capsules, fasting; format: in vivo, Chinese cancer patients; conditions: human, plasma, oral, 100 mg; fasting conditions
From the text: This study, a multicenter, randomized, open-label, single-dose, two-cycle crossover investigation, was distinctly divided into fasting and fed trials. Each subject received either the test or reference formulation in a separate cycle. Each cycle consisted of a 4-day inpatient phase, followed by a 7-day washout period between cycles to ensure that any residual effects from the previous formulation had fully dissipated before the initiation of the next cycle. To avoid the residual effects of fasting or feeding that could influence the results, the fasting and fed trials each enrolled 60 subjects. Subjects were randomly allocated to one of the two treatment sequences, namely, test-reference or reference-test, in a 1:1 ratio. All eligible subjects were admitted to the clinical ward 1 day prior to drug administration, adhering to a minimum fasting period of 10 h before drug intake. In the fasting trial, subjects were required to fast. Subsequently, they ingested a single dose comprising two capsules (50 mg each) of either the test or reference formulation, accompanied by 240 mL of warm water. […]
OXO was determined in blood, which was performed under the following conditions: the aqueous solution containing 5 mM ammonium acetate (mobile phase A) and acetonitrile (mobile phase B). […]

Row | Tmax [2] [h] | SMILES | half-life [1] [min]
1 |  | O=c1[nH]cc(F)c(=O)[nH]1 [5-FU, 5-fluorouracil] | 8 to 20
2 | ~1 | Oc1cc(O)c(Cl)cn1 [CDHP, gimeracil] | 
